Results published in patent US12286442B2, “Methods and materials for increasing transcription factor eb polypeptide levels” (University of Pittsburgh—Of the Commonwealth System of …, priority 2019, dated 2025).

Columns and labels:
BEAS-2B cells = test: Toxicity: compound concentration needed to induce greater than 50 percent of cell loss; format: cell-based, human; conditions: 18 hours incubation
Method in brief: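 Reported value is the concentration giving greater than 50 percent cell loss, grouped into bins (≥25 μM; between 1 and 25 μM; ≤1 μM as "+++"). Measured by high-content imaging of DAPI-stained BEAS-2B TFEB-EGFP cells fixed after 18 h compound exposure.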

TFEB = test: High content screen measuring TFEB nuclear accumulation (TFEB nuclear/cytosol ratio) in BEAS-2B cells stably expressing TFEB-EGFP; format: cell-based, human; conditions: 18 hours incubation
Method in brief: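 Readout: lowest compound concentration giving a 25% rise in nuclear/cytosol TFEB-GFP ratio, from DAPI-masked nuclear and mask-expanded cytosolic signals. Cells (BEAS-2B, TFEB-EGFP stable, ~2300–2500/well) rested 8 hours, then treated 18 hours with compound serial dilutions in 2% FBS medium before PFA fixation and DAPI staining.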

Compound	toxicity (compound concentration needed to induce greater than 50 percent of cell loss) (BEAS-2B cells)	efficacy (minimal compound concentration needed to increase TFEB nuclear/cytosol ratio by 25%) (TFEB)
c1ccc2c(Nc3ccc4cnsc4c3)nc(-c3cncs3)nc2c1 [Compound 390]	+ (cell loss of greater than 50 percent at a concentration that equals or is greater than 25 μM was represented as)	+ (“+” equals >25 μM)
c1cnc2nc(-c3ccncc3)nc(Nc3ccc4nc(C5CC5)oc4c3)c2c1 [Compound 391]	+ (cell loss of greater than 50 percent at a concentration that equals or is greater than 25 μM was represented as)	+++ (“+++” equals ≤1 μM)
c1ccc2c(Nc3ccc4sncc4c3)nc(-c3cncs3)nc2c1 [Compound 392]	+ (cell loss of greater than 50 percent at a concentration that equals or is greater than 25 μM was represented as)	+ (“+” equals >25 μM)
c1ccc2c(Nc3ccc4cnoc4c3)nc(-c3cncs3)nc2c1 [Compound 393]	+ (cell loss of greater than 50 percent at a concentration that equals or is greater than 25 μM was represented as)	++ (“++” equals between ≤25 μM and >1 μM)
c1ccc2c(Nc3ccc4oncc4c3)nc(-c3cncs3)nc2c1 [Compound 394]	+ (cell loss of greater than 50 percent at a concentration that equals or is greater than 25 μM was represented as)	+ (“+” equals >25 μM)
Fc1cc(Nc2nc(-c3cncs3)nc3ccccc23)cc2cc[nH]c12 [Compound 395]	+ (cell loss of greater than 50 percent at a concentration that equals or is greater than 25 μM was represented as)	+++ (“+++” equals ≤1 μM)
Fc1cc(Nc2nc(-c3cncs3)nc3ncccc23)cc2cc[nH]c12 [Compound 396]	+ (cell loss of greater than 50 percent at a concentration that equals or is greater than 25 μM was represented as)	+++ (“+++” equals ≤1 μM)
c1cc(-c2cc3cnccc3c(Nc3ccc4[nH]ccc4c3)n2)ccn1 [Compound 397]	+ (cell loss of greater than 50 percent at a concentration that equals or is greater than 25 μM was represented as)	++ (“++” equals between ≤25 μM and >1 μM)
c1cc(-c2cc3cnccc3c(Nc3ccc4nc(C5CC5)sc4c3)n2)ccn1 [Compound 398]	+ (cell loss of greater than 50 percent at a concentration that equals or is greater than 25 μM was represented as)	+++ (“+++” equals ≤1 μM)
c1cc(-c2cc3cnccc3c(Nc3ccc4[nH]c(C5CC5)cc4c3)n2)ccn1 [Compound 399]	+ (cell loss of greater than 50 percent at a concentration that equals or is greater than 25 μM was represented as)	+++ (“+++” equals ≤1 μM)
Cc1nc2ccc(Nc3nc(-c4ccncc4)cc4ncccc34)cc2s1 [Compound 400]	+ (cell loss of greater than 50 percent at a concentration that equals or is greater than 25 μM was represented as)	+++ (“+++” equals ≤1 μM)
CC(=O)Nc1ccc(Nc2nc(-c3ccncc3)cc3ncccc23)cc1O [Compound 401]	+ (cell loss of greater than 50 percent at a concentration that equals or is greater than 25 μM was represented as)	+++ (“+++” equals ≤1 μM)
